This experiment has as its system CD8+ T cells. The experiment is described as follows: In vitro immunogenicity of HLA-A*24 class I peptides: in vitro T-cell priming with aAPCs loaded with peptide/MHC complexes and anti-CD28 antibody, pMHC multimer readout. The class given is cell-based, human. The settings on record: given as a class symbol; for Donors: share of positive donors in the in vitro immunogenicity experiments; for Wells: share of positive wells in the in vitro immunogenicity experiments. Here is the method:
In order to obtain information regarding the immunogenicity of the TUMAPs of the present invention, we performed investigations using an in vitro T-cell priming assay based on repeated stimulations of CD8+ T cells with artificial antigen presenting cells (aAPCs) loaded with peptide/MHC complexes and anti-CD28 antibody.
Isolated CD8+ lymphocytes or PBMCs were incubated until use in T-cell medium (TCM) consisting of RPMI-Glutamax (Invitrogen, Karlsruhe, Germany) supplemented with 10% heat inactivated human AB serum (PAN-Biotech, Aidenbach, Germany), 100 U/ml Penicillin/100 μg/ml Streptomycin (Cambrex, Cologne, Germany), 1 mM sodium pyruvate (CC Pro, Oberdorla, Germany), 20 μg/ml Gentamycin (Cambrex). 2.5 ng/ml IL-7 (PromoCell, Heidelberg, Germany) and 10 U/ml IL-2 (Novartis Pharma, Nurnberg, Germany) were also added to the TCM at this step. Generation of pMHC/anti-CD28 coated beads, T-cell stimulations and readout was performed in a highly defined in vitro system using four different pMHC molecules per stimulation condition and 8 different pMHC molecules per readout condition. All pMHC complexes used for aAPC loading and cytometric readout were derived from UV-induced MHC ligand exchange with minor modifications. In order to determine the amount of pMHC monomer obtained by exchange we performed streptavidin-based sandwich ELISAs according to (Rodenko et al., 2006). The purified co-stimulatory mouse IgG2a anti human CD28 Ab 9.3 (Jung et al., 1987) was chemically biotinylated using Sulfo-N-hydroxysuccinimidobiotin as recommended by the manufacturer (Perbio, Bonn, Germany). Beads used were 5.6 μm diameter streptavidin coated polystyrene particles (Bangs Laboratories, Illinois, USA).
800.000 beads/200 μl were coated in 96-well plates in the presence of 4×12.5 ng different biotin-pMHC, washed and 600 ng biotin anti-CD28 were added subsequently in a volume of 200 μl. Stimulations were initiated in 96-well plates by co-incubating 1×10^6 CD8+ T cells with 2×10^5 washed coated beads in 200 μl TCM supplemented with 5 ng/ml IL-12 (PromoCell) for 3-4 days at 37° C. Half of the medium was then exchanged by fresh TCM supplemented with 80 U/ml IL-2 and incubating was continued for 3-4 days at 37° C. This stimulation cycle was performed for a total of three times, with 12 individual wells per condition For the pMHC multimer readout using 8 different pMHC molecules per condition, a two-dimensional combinatorial coding approach was used as previously described (Andersen et al., 2012) with minor modifications encompassing coupling to 5 different fluorochromes. Finally, multimeric analyses were performed by staining the cells with Live/dead near IR dye (Invitrogen, Karlsruhe, Germany), CD8-FITC antibody clone SK1 (BD, Heidelberg, Germany) and fluorescent pMHC multimers. For analysis, a BD LSRII SORP cytometer equipped with appropriate lasers and filters was used. Peptide specific cells were calculated as percentage of total CD8+ cells. Evaluation of multimeric analysis was done using the FlowJo software (Tree Star, Oregon, USA). In vitro priming of specific multimer+ CD8+ lymphocytes was detected by comparison to irrelevant control stimulations.
Exemplary flow cytometry results after TUMAP-specific multimer staining for two peptides of the invention are shown in FIG. 4 together with corresponding negative controls.

For “RYGPQFTL (listed as Homo sapiens) [PCD-002]”, the Donors result is recorded as “++ (20%-49 % = ++)” and the Wells result is recorded as “+ (<20% = +)”.
The like results for “RYIPLIVDI (listed as Homo sapiens) [ARHGAP21-001]” were, in that order, “++ (20%-49 % = ++)” and “+ (<20% = +)”.
The like results for “RYLPSSVFL (listed as Homo sapiens) [ZNF749-001]” were, in that order, “++ (20%-49 % = ++)” and “+ (<20% = +)”.
On the same counts, the results for “RYQESLGNTVF (listed as Homo sapiens) [PJA2-001]” are “++ (20%-49 % = ++)” and “+ (<20% = +)”.
As to “RYSDGLLRF (listed as Homo sapiens) [LZTS1-001]”, the Donors entry is “++ (20%-49 % = ++)” and the Wells entry is on record as “+ (<20% = +)”.
On the same counts, the results for “SYNPLWLRI (listed as Homo sapiens) [ASPM-002]” are “+++ (50%-70% = +++)” and “+ (<20% = +)”.
As for “TYIIKSVGF (listed as Homo sapiens) [UNKN-003]”, the Donors result is recorded as “++ (20%-49 % = ++)” and the Wells entry was “+ (<20% = +)”.
The like results for “TYIPPLLVAF (listed as Homo sapiens) [TMEM231-001]” were, in that order, “+++ (50%-70% = +++)” and “+ (<20% = +)”.
On the same counts, the results for “TYNYAVLKF (listed as Homo sapiens) [GPM-002]” are “+++ (50%-70% = +++)” and “+ (<20% = +)”.
For “TYTSYLDKF (listed as Homo sapiens) [MAPK6-001]”, the Donors entry is recorded as “++ (20%-49 % = ++)” and the Wells entry was “+ (<20% = +)”.
On the same counts, the results for “TYVDSSHTI (listed as Homo sapiens) [VCAN-003]” are “+++ (50%-70% = +++)” and “+ (<20% = +)”.
On the same counts, the results for “VLPDADTLLHF (listed as Homo sapiens) [APC-001]” are “++ (20%-49 % = ++)” and “+ (<20% = +)”.
Turning to “VYDTMIEKF (listed as Homo sapiens) [PTP-016]”, the Donors result was “++ (20%-49 % = ++)” and the Wells entry is given as “+ (<20% = +)”.
On the same counts, the results for “VYLKEANAI (listed as Homo sapiens) [KIF1B-001]” are “++ (20%-49 % = ++)” and “+ (<20% = +)”.
The like results for “VYLTIKPLNL (listed as Homo sapiens) [EFCAB7-001]” were, in that order, “++ (20%-49 % = ++)” and “+ (<20% = +)”.
On the same counts, the results for “VYNDIGKEMLL (listed as Homo sapiens) [KIF1B-002]” are “++ (20%-49 % = ++)” and “+ (<20% = +)”.
“VYNLTQEFF (listed as Homo sapiens) [SMOX-001]”: the Donors result was “++ (20%-49 % = ++)” and the Wells entry is listed as “+ (<20% = +)”.
“VYQVLQEHL (listed as Homo sapiens) [BMP7-001]”: the Donors entry was “++ (20%-49 % = ++)” and the Wells result was “+ (<20% = +)”.
With “VYYFHPQYL (listed as Homo sapiens) [ST8SIA5-001]”, the Donors result is “++++ (>70% = ++++)” and the Wells entry is reported as “++ (20%-49 % = ++)”.
With “YYHFIFTTL (listed as Homo sapiens) [GRIK3-002]”, the Donors result was “++++ (>70% = ++++)” and the Wells result is “+ (<20% = +)”.
Turning to “YYLDKSVSI (listed as Homo sapiens) [SCARA3-002]”, the Donors entry was “++ (20%-49 % = ++)” and the Wells entry is “+ (<20% = +)”.
On the same counts, the results for “YYPGVILGF (listed as Homo sapiens) [TMEM255A-001]” are “++ (20%-49 % = ++)” and “+ (<20% = +)”.
For the substance “YYQIRSSQL (listed as Homo sapiens) [EXOC7-001]”, the Donors result is recorded as “++ (20%-49 % = ++)” and the Wells result is reported as “+ (<20% = +)”.
The like results for “YYTVRNFTL (listed as Homo sapiens) [PTP-014]” were, in that order, “++ (20%-49 % = ++)” and “+ (<20% = +)”.
The like results for “ZNFS3-001 (RYLPSSVFL; listed as Homo sapiens)” were, in that order, “+++ (50%-70% = +++)” and “++ (20%-49 % = ++)”.
